Experimental data published in patent US7884116B2, “Octahydronaphthalene derivative and medicine” (Nippon Shinyaku Co., Ltd., priority 2003, dated 2011).
Marks after values point to notes of the source that are not given here.

Experiments:
[1] = tested on: ICAM-1 expressed on HUVEC; assay: Test about suppression of ICAM-1 expression (enzyme immuno assay, EIA), TNF-α-stimulated HUVEC; type: cell-based; conditions: Homo sapiens, TNF-α 0.3 ng/ml
Experimental: Using a culture broth containing serum for vascular endothelial cell (manufactured by Nissui Pharmaceutical Co., Ltd.) as a culture medium, HUVEC (umbilical vein endothelial cell manufactured by Morinaga Bioscience Institute) was cultured in a collagen-treated flask by the routine method.
For carrying out a test about the suppression of ICAM-1 expression with HUVEC, a collagen-treated 96-well plate was used, where HUVEC was added at 1 to 2×10^4 cells/well while the culture medium was added at 100 to 200 μl/well. The cell was cultured in 5% CO2 at 37° C. for 48 to 72 hours. Before adding a test solution, the culture medium (80 μl) was exchanged, to which 10 μl of a test solution preliminarily diluted was then added. The plate was allowed to stand alone in a CO2 incubator. 2 hours later, 10 μl of TNF-α (recombinant human TNF-α, manufactured by Genzyme) was added (to a final concentration of 0.3 ng/ml). The resulting plate was again allowed to stand alone in the CO2 incubator. 16 to 22 hours later, the cell was fixed with 1% p-formaldehyde solution. The cell was rinsed with a phosphate buffer containing Ca^2+ and Mg^2+, which was then treated with an anti-human ICAM-1 antibody (mouse IgG1, manufactured by Kyowa Medics) at ambient temperature for 30 minutes. After the cell was rinsed again with the phosphate buffer, the cell was treated with a peroxide-labeled anti-mouse IgG (H+L) (manufactured by Organon Teknik Corp.) for another 30 minutes. After the cell was again rinsed with the phosphate buffer, the color developed was measured, using a peroxidase chromogenic kit (manufactured by Sumitomo Bakelite Co., Ltd.), to determine ICAM-1 expressed on HUVEC as an expression-inhibiting ratio (%) to a non-drug group to calculate the IC50 value.

[2] = reported in non-patent reference 14; cited from earlier work
[3] = tested on: footpad thickness, MeHSA-sensitized C57BL/6 mouse; assay: Methylated human serum albumin-induced delayed hypersensitivity test (MeHSA-DTH); type: in vivo; conditions: oral, twice, footpad thickness 24 hours after induction
Experimental: Methylated human serum albumin (MeHSA) was dissolved in physiological saline to 5 mg/ml, which was then mixed with an equal volume of the complete Freund's adjuvant (manufactured by Iatron), to prepare an emulsion. Next, 100 μl of the prepared emulsion was injected subcutaneously into a 8-week-old male C57BL/6 mouse, for antigen sensitization. Seven days thereafter, MeHSA was dissolved in physiological saline to 1 mg/ml, which was injected at 25 μl subcutaneously into the footpad of the right hind limb, to trigger a reaction. The thickness of the footpad was measured 24 hours after the induction of the reaction, to calculate the difference from the thickness thereof before the induction of the reaction, to make an assessment. Additionally, drugs were orally given twice, namely one hour before the induction of the reaction and 16 hours after the induction thereof.

C/C(=C\C=C\[C@@H]1[C@H]2[C@H](C)[C@@H](O)[C@H](C)C[C@@H]2C=C[C@@H]1C)C(=O)NCc1ccc(Cl)cc1 [Example 10, N-(4-Chlorobenzyl)-(2E,4E)-5-[(1S,2S,4aR,6R,7S,8S,8aS)-7-hydroxy-2,6,8-trimethyl-1,2,4a,5,6,7,8,8a-octahydronaphthalen-1-yl]-2-methylpenta-2,4-dienamide]
IC50 [1]: 140 µM

C/C(=C\C=C\[C@@H]1[C@H]2[C@H](C)[C@@H](O)[C@H](C)C[C@@H]2C=C[C@@H]1C)C(=O)NCc1ccccn1 [Example 7, N-(Pyridin-2-ylmethyl)-(2E,4E)-5-[(1S,2S,4aR,6R,7S,8S,8aS)-7-hydroxy-2,6,8-trimethyl-1,2,4a,5,6,7,8,8a-octahydronaphthalen-1-yl]-2-methylpenta-2,4-dienamide]
IC50 [1]: 2 µM

COC(=O)/C(C)=C/C=C/[C@@H]1[C@H]2[C@H](C)[C@@H](O)[C@H](C)C[C@@H]2C=C[C@@H]1C [Example 2, Methyl (2E,4E)-5-[(1S,2S,4aR,6R,7S,8S,8aS)-7-hydroxy-2,6,8-trimethyl-1,2,4a,5,6,7,8,8a-octahydronaphthalen-1-yl]-2-methylpenta-2,4-dienoate]
IC50 [1]: 0.67 µM | melting point: 54 to 57 °C

C/C(=C\C=C\[C@@H]1[C@H]2[C@H](C)[C@@H](O)[C@H](C)C[C@@H]2C=C[C@@H]1C)C(=O)NCc1ccc(C)cc1 [Example 11, N-(4-Methylbenzyl)-(2E,4E)-5-[(1S,2S,4aR,6R,7S,8S,8aS)-7-hydroxy-2,6,8-trimethyl-1,2,4a,5,6,7,8,8a-octahydronaphthalen-1-yl]-2-methylpenta-2,4-dienamide]
IC50 [1]: 160 µM

C/C(=C\C=C\[C@@H]1[C@H]2[C@H](C)[C@@H](O)[C@H](C)C[C@@H]2C=C[C@@H]1C)C(=O)NCCc1ccc(O)cc1 [Example 14, N-(4-Hydroxyphenethyl)-(2E,4E)-5-[(1S,2S,4aR,6R,7S,8S,8aS)-7-hydroxy-2,6,8-trimethyl-1,2,4a,5,6,7,8,8a-octahydronaphthalen-1-yl]-2-methylpenta-2,4-dienamide]
IC50 [1]: 15 µM

C/C(=C\C=C\[C@@H]1[C@H]2[C@H](C)[C@@H](O)[C@H](C)C[C@@H]2C=C[C@@H]1C)C(=O)NC(C)(C)C [Example 19, N-(t-Butyl)-(2E,4E)-5-[(1S,2S,4aR,6R,7S,8S,8aS)-7-hydroxy-2,6,8-trimethyl-1,2,4a,5,6,7,8,8a-octahydronaphthalen-1-yl]-2-methylpenta-2,4-dienamide]
IC50 [1]: 15 µM

C/C(=C\C=C\[C@@H]1[C@H]2[C@H](C)[C@@H](O)[C@H](C)C[C@@H]2C=C[C@@H]1C)C(=O)N(C)C [Example 20, N,N-Dimethyl-(2E,4E)-5-[(1S,2S,4aR,6R,7S,8S,8aS)-7-hydroxy-2,6,8-trimethyl-1,2,4a,5,6,7,8,8a-octahydronaphthalen-1-yl]-2-methylpenta-2,4-dienamide]
IC50 [1]: 1.4 µM

C/C(=C\C=C\[C@@H]1[C@H]2[C@H](C)[C@@H](O)[C@H](C)C[C@@H]2C=C[C@@H]1C)C(=O)NCCc1ccncc1 [Example 13, N-(Pyridin-4-ylethyl)-(2E,4E)-5-[(1S,2S,4aR,6R,7S,8S,8aS)-7-hydroxy-2,6,8-trimethyl-1,2,4a,5,6,7,8,8a-octahydronaphthalen-1-yl]-2-methylpenta-2,4-dienamide]
IC50 [1]: 5.7 µM

C/C(=C\C=C\[C@@H]1[C@H]2[C@H](C)[C@@H](O)[C@H](C)C[C@@H]2C=C[C@@H]1C)CO [Example 3, (2E,4E)-5-[(1S,2S,4aR,6R,7S,8S,8aS)-7-Hydroxy-2,6,8-trimethyl-1,2,4a,5,6,7,8,8a-octahydronaphthalen-1-yl]-2-methylpenta-2,4-dien-1-ol]
IC50 [1]: 9.9 µM

CNC(=O)/C(C)=C/C=C/[C@@H]1[C@H]2[C@H](C)[C@@H](O)[C@H](C)C[C@@H]2C=C[C@@H]1C [Example 17, N-Methyl-(2E,4E)-5-[(1S,2S,4aR,6R,7S,8S,8aS)-7-hydroxy-2,6,8-trimethyl-1,2,4a,5,6,7,8,8a-octahydronaphthalen-1-yl]-2-methylpenta-2,4-dienamide]
IC50 [1]: 2.6 µM

COc1cccc(CNC(=O)/C(C)=C/C=C/[C@@H]2[C@H]3[C@H](C)[C@@H](O)[C@H](C)C[C@@H]3C=C[C@@H]2C)c1 [Example 9, N-(3-Methoxybenzyl)-(2E,4E)-5-[(1S,2S,4aR,6R,7S,8S,8aS)-7-hydroxy-2,6,8-trimethyl-1,2,4a,5,6,7,8,8a-octahydronaphthalen-1-yl]-2-methylpenta-2,4-dienamide]
IC50 [1]: 2.1 µM

C/C(=C\C=C\[C@@H]1[C@H]2[C@H](C)[C@@H](O)[C@H](C)C[C@@H]2C=C[C@@H]1C)C(=O)NCc1ccccc1 [Example 8, N-Benzyl-(2E,4E)-5-[(1S,2S,4aR,6R,7S,8S,8aS)-7-hydroxy-2,6,8-trimethyl-1,2,4a,5,6,7,8,8a-octahydronaphthalen-1-yl]-2-methylpenta-2,4-dienamide]
IC50 [1]: 0.47 µM

CCCCNC(=O)/C(C)=C/C=C/[C@@H]1[C@H]2[C@H](C)[C@@H](O)[C@H](C)C[C@@H]2C=C[C@@H]1C [Example 18, N-(n-Butyl)-(2E,4E)-5-[(1S,2S,4aR,6R,7S,8S,8aS)-7-hydroxy-2,6,8-trimethyl-1,2,4a,5,6,7,8,8a-octahydronaphthalen-1-yl]-2-methylpenta-2,4-dienamide]
IC50 [1]: 2.4 µM

COC(=O)/C=C/C=C/[C@@H]1[C@H]2[C@H](C)[C@@H](O)[C@H](C)C[C@@H]2C=C[C@@H]1C [Coprophilin]
Antibacterial activity [2]: has an antibacterial activity

C/C(=C\C=C\[C@@H]1[C@H]2[C@H](C)[C@@H](O)[C@H](C)C[C@@H]2C=C[C@@H]1C)C(=O)NCc1ccncc1 [Example 6, N-(Pyridin-4-ylmethyl)-(2E,4E)-5-[(1S,2S,4aR,6R,7S,8S,8aS)-7-hydroxy-2,6,8-trimethyl-1,2,4a,5,6,7,8,8a-octahydronaphthalen-1-yl]-2-methylpenta-2,4-dienamide]
IC50 [1]: 0.59 µM | Suppression ratio (%) ([3]; 10 mg/kg): 27.8* % | Suppression ratio (%) ([3]; 30 mg/kg): 35.7** %

C/C(=C\C=C\[C@@H]1[C@H]2[C@H](C)[C@@H](O)[C@H](C)C[C@@H]2C=C[C@@H]1C)C(N)=O [Example 22, (2E,4E)-5-[(1S,2S,4aR,6R,7S,8S,8aS)-7-Hydroxy-2,6,8-trimethyl-1,2,4a,5,6,7,8,8a-octahydronaphthalen-1-yl]-2-methylpenta-2,4-dienamide]
IC50 [1]: 8.8 µM

C/C(=C\C=C\[C@@H]1[C@H]2[C@H](C)[C@@H](O)[C@H](C)C[C@@H]2C=C[C@@H]1C)C(=O)Nc1ccccc1 [Example 16, N-Phenyl-(2E,4E)-5-[(1S,2S,4aR,6R,7S,8S,8aS)-7-hydroxy-2,6,8-trimethyl-1,2,4a,5,6,7,8,8a-octahydronaphthalen-1-yl]-2-methylpenta-2,4-dienamide]
IC50 [1]: 15 µM

C/C(=C\C=C\[C@@H]1[C@H]2[C@H](C)[C@@H](O)[C@H](C)C[C@@H]2C=C[C@@H]1C)C(=O)N(C)Cc1ccccc1 [Example 21, N-Benzyl-N-methyl-(2E,4E)-5-[(1S,2S,4aR,6R,7S,8S,8aS)-7-hydroxy-2,6,8-trimethyl-1,2,4a,5,6,7,8,8a-octahydronaphthalen-1-yl]-2-methylpenta-2,4-dienamide]
IC50 [1]: 4.9 µM
